# Assays:
# [1] = system: KMS12-BM (NIK WT) multiple myeloma cells; assay: Antiproliferative activity on KMS12-BM multiple myeloma cells (CellTiter-Glo, 96 hr), Biological Assay C; assay type: cell-based, human; details: Homo sapiens, KMS-12-BM, 96 h, averaged values, read-out: KMS-12 Proliferation inhibition (IC50 (nM))
# In short: (§1)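 JJN-3 and KMS12-BM cells in RPMI 1640 with 10% FCS were plated at 15000–20000 cells/well and treated 96 h with a 9-point 1:3 dilution series (0.3% DMSO). Viability read by CellTiter-Glo luminescence, blank (time-zero cells) subtracted, expressed as % of untreated control; duplicate wells.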
# [2] = biological target: recombinant human NF-kappaB-inducing kinase (NIK/MAP3K14) (Homo sapiens, UniProt Q99558); assay: Inhibition of auto-phosphorylation of recombinant human NIK/MAP3K14 activity (AlphaScreen), Biological Assay A; assay type: biochemical; details: averaged values over all measurements on all batches
# Sequence of recombinant human NF-kappaB-inducing kinase (NIK/MAP3K14) (Q99558 whole entry): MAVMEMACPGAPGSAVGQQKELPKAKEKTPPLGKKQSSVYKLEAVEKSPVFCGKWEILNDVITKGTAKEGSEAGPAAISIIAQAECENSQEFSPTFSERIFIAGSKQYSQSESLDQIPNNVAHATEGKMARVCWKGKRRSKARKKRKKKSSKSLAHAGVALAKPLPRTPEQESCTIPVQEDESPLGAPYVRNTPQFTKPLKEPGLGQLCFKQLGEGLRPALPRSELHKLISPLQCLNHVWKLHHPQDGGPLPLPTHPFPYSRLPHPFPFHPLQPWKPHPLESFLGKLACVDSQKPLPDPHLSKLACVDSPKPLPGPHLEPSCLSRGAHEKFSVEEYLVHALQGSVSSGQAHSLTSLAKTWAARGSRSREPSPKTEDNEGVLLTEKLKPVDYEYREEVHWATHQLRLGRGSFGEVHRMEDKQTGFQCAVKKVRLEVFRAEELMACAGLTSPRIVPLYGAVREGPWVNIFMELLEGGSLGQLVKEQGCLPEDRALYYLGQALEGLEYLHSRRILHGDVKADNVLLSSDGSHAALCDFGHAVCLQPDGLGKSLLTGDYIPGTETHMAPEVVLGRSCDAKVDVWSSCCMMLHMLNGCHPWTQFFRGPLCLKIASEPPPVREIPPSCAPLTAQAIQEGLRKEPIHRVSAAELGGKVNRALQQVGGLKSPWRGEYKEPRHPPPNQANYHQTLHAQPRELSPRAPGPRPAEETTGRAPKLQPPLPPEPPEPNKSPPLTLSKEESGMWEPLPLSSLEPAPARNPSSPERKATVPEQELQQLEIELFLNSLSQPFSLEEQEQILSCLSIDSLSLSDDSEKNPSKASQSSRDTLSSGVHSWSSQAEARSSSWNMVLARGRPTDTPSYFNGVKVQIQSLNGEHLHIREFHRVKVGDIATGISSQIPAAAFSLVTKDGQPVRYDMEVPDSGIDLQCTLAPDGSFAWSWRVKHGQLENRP
# In short: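 GST-tagged enzyme (0.2 nM) incubated with compound and 25 μM ATP in 50 mM Tris pH 7.5, 5 mM MgCl2, 1 mM EGTA, 1 mM DTT, 0.1 mM Na3VO4, 1% DMSO, 1 h at 25 °C. Stopped with anti-phospho-IKK Ser176/180 antibody; AlphaScreen bead read, blank-subtracted, IC50 from sigmoidal fit.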
# [3] = system: P-IKKα levels in L363 (NIK translocated multiple myeloma) cells; assay: Effect of compounds on P-IKKα levels in L363 cells (Mesoscale sandwich immuno-assay), Biological Assay B; assay type: cell-based, human; details: Homo sapiens, L-363, 2 h, 2 hr treatment, averaged values, read-out: Inhibition of pIKKα_L-363 (IC50 (nM))
# In short: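 L363 NIK-translocated myeloma cells primed 24 h with 1 μg/ml BAFF (stock), then treated 2 h with compound (1% DMSO, 8-point 1:3 dilutions). Lysate P-IKKα measured by Mesoscale sandwich immunoassay; MG132+BAFF controls, blank with 10 μM ADS125117 subtracted. IC50 from sigmoidal fit of % inhibition versus log concentration.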
# [4] = system: JJN-3 (NIK translocated) multiple myeloma cells; assay: Antiproliferative activity on JJN-3 multiple myeloma cells (CellTiter-Glo, 96 hr), Biological Assay C; assay type: cell-based, human; details: Homo sapiens, JJN-3, 96 h, JJN-3 (NIK translocated) cells, averaged values, read-out: JJN-3 Proliferation inhibition (IC50 (nM))
# In short: as §1
SMILES,IC50 [1],melting point,IC50 [2],IC50 [3],IC50 [4]
Cc1ccc(CN2CC(F)C2)cc1Nc1nccc(-c2cc(C#N)c3c(c2)[C@@](C)(CO)CN3)n1 [Compound 220],> 10000 nM,140 °C,10.2 nM,72.4 nM,4570 nM
CN1CCC(Oc2ccc(C#N)cc2Nc2nccc(-c3cc(C#N)c4c(c3)[C@@](C)(CO)CN4)n2)CC1 [Compound 223],~851 nM,129 °C,1.6 nM,3.1 nM,23 nM
C[C@]1(CO)CNc2c(C#N)cc(-c3ccnc(Nc4cc(C#N)ccc4CN4CCOCC4)n3)cc21 [Compound 224],> 10000 nM,238 °C,14.1 nM,83.2 nM,3240 nM
C[C@]1(CO)CNc2c(C#N)cc(-c3ccnc(Nc4cc(C#N)ccc4CNC4CC4)n3)cc21 [Compound 225],> 10000 nM,181 °C,20 nM,19.5 nM,195 nM
CN1CCN(Cc2ccc(C#N)cc2Nc2nccc(-c3cc(C#N)c4c(c3)[C@@](C)(CO)CN4)n2)CC1 [Compound 226],> 10000 nM,298 °C,4.3 nM,33.1 nM,74 nM
C[C@]1(CO)CNc2c(C#N)cc(-c3ccnc(Nc4cc(C#N)ccc4CN4CC(F)(F)C4)n3)cc21 [Compound 227],~3160 nM,223 °C,7.9 nM,32.4 nM,96 nM
CC1(CO)CNc2c(C#N)cc(-c3ccnc(Nc4cc(C#N)ccc4CN4CC(F)C4)n3)cc21 (stereo not shown) [Compound 228],> 10000 nM,170 °C,5.4 nM,19.5 nM,120 nM
C[C@]1(CO)CNc2c(C#N)cc(-c3ccnc(Nc4cc(C#N)ccc4CCN4CC(F)C4)n3)cc21 [Compound 229],> 10000 nM,207 °C,7.6 nM,22.4 nM,251 nM
Cc1ccc(OCCNC2CC2)c(Nc2nccc(-c3cc(C#N)c4c(c3)[C@@](C)(CO)CN4)n2)c1 [Compound 235],2690 nM,133 °C,3.9 nM,60.3 nM,457 nM
CN(C)Cc1cc(Nc2nccc(-c3cc(C#N)c4c(c3)[C@@](C)(CO)CN4)n2)ccc1C1CCOCC1 [Compound 236],178 nM,249 °C,2.6 nM,42.7 nM,32 nM
CCS(=O)(=O)N(C)c1cccc(Nc2nccc(-c3cc(C#N)c4c(c3)C(C)(CO)CN4)n2)c1 (stereo not shown) [Compound 240],302 nM,259 °C,2.5 nM,11.2 nM,44 nM

# Source: patent US11180487B2, “Substituted cyanoindoline derivatives as NIK inhibitors” (Janssen Pharmaceutica NV, priority 2016, dated 2021)
